Measured values taken from ChEMBL document CHEMBL1201862, “PubChem BioAssay data set” (2004).
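These data come from cells grown in 96-well plates and exposed to compound for 48 hours at five concentrations. GI50 marks 50% less growth.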 Activity calls are given as the source filed them. Cut-off read from the data, not from the text of the source: active = GI50 up to about 1.1 µM and inactive = higher.

How the values were obtained:
Test in all cases: inhibition of tumour cell growth, NCI panel, 48 h
[1] = tested on: 786-0
[2] = tested on: A498
[3] = tested on: A549
[4] = tested on: ACHN
[5] = tested on: BT-549
[6] = tested on: CAKI-1
[7] = tested on: CCRF-CEM
[8] = tested on: COLO 205
[9] = tested on: DLD-1
[10] = tested on: DMS-114
[11] = tested on: DMS-273
[12] = tested on: DU-145
[13] = tested on: EKVX
[14] = tested on: HCC 2998
[15] = tested on: HCT-116
[16] = tested on: HCT-15
[17] = tested on: HL-60
[18] = tested on: HOP-18
[19] = tested on: HOP-62
[20] = tested on: HOP-92
[21] = tested on: HT-29
[22] = tested on: Hs-578T
[23] = tested on: IGROV-1
[24] = tested on: K562
[25] = tested on: KM-20L2
[26] = tested on: KM12
[27] = tested on: LOX IMVI
[28] = tested on: LXFL 529
[29] = tested on: M14
[30] = tested on: M19-MEL
[31] = tested on: MCF7
[32] = tested on: MDA-MB-231
[33] = tested on: MDA-MB-435
[34] = tested on: MDA-N
[35] = tested on: MOLT-4
[36] = tested on: Malme-3M
[37] = tested on: NCI-H226
[38] = tested on: NCI-H23
[39] = tested on: NCI-H460
[40] = tested on: NCI-H522
[41] = tested on: NCI/ADR-RES
[42] = tested on: OVCAR-3
[43] = tested on: OVCAR-4
[44] = tested on: OVCAR-5
[45] = tested on: OVCAR-8
[46] = tested on: PC-3
[47] = tested on: RPMI-8226
[48] = tested on: RXF 393
[49] = tested on: RXF 631
[50] = tested on: SF-268
[51] = tested on: SF-295
[52] = tested on: SF-539
[53] = tested on: SK-MEL-28
[54] = tested on: SK-MEL-2
[55] = tested on: SK-MEL-5
[56] = tested on: SK-OV-3
[57] = tested on: SN12C
[58] = tested on: SNB-19
[59] = tested on: SNB-75
[60] = tested on: SNB-78
[61] = tested on: SR
[62] = tested on: SW-620
[63] = tested on: T47D
[64] = tested on: TK-10
[65] = tested on: U-251
[66] = tested on: UACC-257
[67] = tested on: UACC-62
[68] = tested on: UO-31
[69] = tested on: XF498

**Q.** For `C[N+](C)(C)CC1CCCC(C[N+](C)(C)C)C1=O` (centres undefined), which GI50 [1] is on record?
**A.** The GI50 was 0.661 µM (active).

**Q.** What about the GI50 [2] of the same compound?
**A.** Its GI50 is 9.62 µM (inactive).

**Q.** What about the GI50 [3] of the same compound?
**A.** Its GI50 is 14.8 µM (inactive).

**Q.** What about the GI50 [4] of the same compound?
**A.** The GI50 was 0.845 µM (active).

**Q.** And the GI50 [5]?
**A.** The GI50 was 1.58 µM (inactive).

**Q.** And the GI50 [6]?
**A.** The GI50 was 0.984 µM (active).

**Q.** And the GI50 [7]?
**A.** Its GI50 is 0.1 µM (active).

**Q.** What about the GI50 [8] of the same compound?
**A.** The GI50 was 0.374 µM (active).

**Q.** What about the GI50 [9] of the same compound?
**A.** Its GI50 is 0.105 µM (active).

**Q.** What about the GI50 [10] of the same compound?
**A.** The GI50 was 1.77 µM (inactive).

**Q.** And the GI50 [11]?
**A.** The GI50 was 3.4 µM (inactive).

**Q.** What about the GI50 [12] of the same compound?
**A.** The GI50 was 5.75 µM (inactive).

**Q.** What about the GI50 [13] of the same compound?
**A.** Its GI50 is 1.58 µM (inactive).

**Q.** And the GI50 [14]?
**A.** The GI50 was 0.513 µM (active).

**Q.** What about the GI50 [15] of the same compound?
**A.** Its GI50 is 0.804 µM (active).

**Q.** What about the GI50 [16] of the same compound?
**A.** Its GI50 is 0.308 µM.

**Q.** What about the GI50 [17] of the same compound?
**A.** The GI50 was 0.272 µM (active).

**Q.** What about the GI50 [18] of the same compound?
**A.** Its GI50 is 0.494 µM (active).

**Q.** And the GI50 [19]?
**A.** Its GI50 is 23.3 µM (inactive).

**Q.** And the GI50 [20]?
**A.** Its GI50 is 0.441 µM (active).

**Q.** And the GI50 [21]?
**A.** Its GI50 is 1.3 µM (inactive).

**Q.** And the GI50 [22]?
**A.** Its GI50 is 13 µM (inactive).

**Q.** And the GI50 [23]?
**A.** Its GI50 is 5.24 µM (inactive).

**Q.** And the GI50 [24]?
**A.** The GI50 was 0.0724 µM (active).

**Q.** What about the GI50 [25] of the same compound?
**A.** Its GI50 is 0.855 µM (active).

**Q.** What about the GI50 [26] of the same compound?
**A.** The GI50 was 4.66 µM (inactive).

**Q.** What about the GI50 [27] of the same compound?
**A.** The GI50 was 1.23 µM (inactive).

**Q.** And the GI50 [28]?
**A.** Its GI50 is 0.177 µM (active).

**Q.** And the GI50 [29]?
**A.** The GI50 was 0.879 µM (active).

**Q.** What about the GI50 [30] of the same compound?
**A.** Its GI50 is 0.879 µM (active).

**Q.** What about the GI50 [31] of the same compound?
**A.** Its GI50 is 0.506 µM (active).

**Q.** What about the GI50 [32] of the same compound?
**A.** Its GI50 is 2.01 µM (inactive).

**Q.** What about the GI50 [33] of the same compound?
**A.** Its GI50 is 1.8 µM (inactive).

**Q.** What about the GI50 [34] of the same compound?
**A.** The GI50 was 3.49 µM (inactive).

**Q.** What about the GI50 [35] of the same compound?
**A.** Its GI50 is 0.133 µM (active).

**Q.** What about the GI50 [36] of the same compound?
**A.** Its GI50 is 0.212 µM (active).

**Q.** What about the GI50 [37] of the same compound?
**A.** Its GI50 is 15.6 µM (inactive).

**Q.** What about the GI50 [38] of the same compound?
**A.** The GI50 was 2.42 µM (inactive).

**Q.** And the GI50 [39]?
**A.** The GI50 was 16.3 µM (inactive).

**Q.** What about the GI50 [40] of the same compound?
**A.** Its GI50 is 0.447 µM (active).

**Q.** What about the GI50 [41] of the same compound?
**A.** The GI50 was 2.59 µM (inactive).

**Q.** What about the GI50 [42] of the same compound?
**A.** Its GI50 is 0.703 µM (active).

**Q.** And the GI50 [43]?
**A.** The GI50 was 0.641 µM (active).

**Q.** What about the GI50 [44] of the same compound?
**A.** The GI50 was 3.52 µM (inactive).

**Q.** And the GI50 [45]?
**A.** The GI50 was 0.869 µM (active).

**Q.** And the GI50 [46]?
**A.** The GI50 was 4.61 µM (inactive).

**Q.** And the GI50 [47]?
**A.** Its GI50 is 0.0579 µM (active).

**Q.** What about the GI50 [48] of the same compound?
**A.** Its GI50 is 1.69 µM (inactive).

**Q.** What about the GI50 [49] of the same compound?
**A.** The GI50 was 1.96 µM (inactive).

**Q.** What about the GI50 [50] of the same compound?
**A.** Its GI50 is 7.31 µM (inactive).

**Q.** What about the GI50 [51] of the same compound?
**A.** The GI50 was 29.7 µM (inactive).

**Q.** And the GI50 [52]?
**A.** The GI50 was 4.79 µM (inactive).

**Q.** What about the GI50 [53] of the same compound?
**A.** Its GI50 is 1.85 µM (inactive).

**Q.** And the GI50 [54]?
**A.** The GI50 was 1.9 µM (inactive).

**Q.** What about the GI50 [55] of the same compound?
**A.** Its GI50 is 5.16 µM (inactive).

**Q.** And the GI50 [56]?
**A.** Its GI50 is 13.7 µM (inactive).

**Q.** And the GI50 [57]?
**A.** Its GI50 is 1.19 µM (inactive).

**Q.** What about the GI50 [58] of the same compound?
**A.** The GI50 was 19 µM (inactive).

**Q.** What about the GI50 [59] of the same compound?
**A.** Its GI50 is 4.7 µM (inactive).

**Q.** And the GI50 [60]?
**A.** Its GI50 is 2.39 µM (inactive).

**Q.** And the GI50 [61]?
**A.** The GI50 was 0.158 µM (active).

**Q.** And the GI50 [62]?
**A.** Its GI50 is 0.0726 µM (active).

**Q.** And the GI50 [63]?
**A.** The GI50 was 1.09 µM (active).

**Q.** And the GI50 [64]?
**A.** Its GI50 is 1.21 µM (inactive).

**Q.** And the GI50 [65]?
**A.** The GI50 was 3.35 µM (inactive).

**Q.** What about the GI50 [66] of the same compound?
**A.** The GI50 was 0.805 µM (active).

**Q.** And the GI50 [67]?
**A.** The GI50 was 4.66 µM (inactive).

**Q.** What about the GI50 [68] of the same compound?
**A.** The GI50 was 1.67 µM (inactive).

**Q.** And the GI50 [69]?
**A.** Its GI50 is 0.411 µM (active).
